Results published in patent US8088763B2 (priority 2004, dated 2012).

Key:
NA-uptake = NA-uptake (Rattus norvegicus, UniProt Q63380); experiment: biochemical; conditions: for inhibition at 10 µM: read-out: NA-uptake [10 μM], % inhibition
5HT-uptake = molecular target: T1, 5HT-uptake (Rattus norvegicus, UniProt P31652); experiment: biochemical; conditions: for inhibition at 10 µM: read-out: 5HT-uptake [10 μM], % inhibition
T1 construct: synaptosomes were freshly isolated from areas of rats' brains
T1 sequence (P31652 whole entry): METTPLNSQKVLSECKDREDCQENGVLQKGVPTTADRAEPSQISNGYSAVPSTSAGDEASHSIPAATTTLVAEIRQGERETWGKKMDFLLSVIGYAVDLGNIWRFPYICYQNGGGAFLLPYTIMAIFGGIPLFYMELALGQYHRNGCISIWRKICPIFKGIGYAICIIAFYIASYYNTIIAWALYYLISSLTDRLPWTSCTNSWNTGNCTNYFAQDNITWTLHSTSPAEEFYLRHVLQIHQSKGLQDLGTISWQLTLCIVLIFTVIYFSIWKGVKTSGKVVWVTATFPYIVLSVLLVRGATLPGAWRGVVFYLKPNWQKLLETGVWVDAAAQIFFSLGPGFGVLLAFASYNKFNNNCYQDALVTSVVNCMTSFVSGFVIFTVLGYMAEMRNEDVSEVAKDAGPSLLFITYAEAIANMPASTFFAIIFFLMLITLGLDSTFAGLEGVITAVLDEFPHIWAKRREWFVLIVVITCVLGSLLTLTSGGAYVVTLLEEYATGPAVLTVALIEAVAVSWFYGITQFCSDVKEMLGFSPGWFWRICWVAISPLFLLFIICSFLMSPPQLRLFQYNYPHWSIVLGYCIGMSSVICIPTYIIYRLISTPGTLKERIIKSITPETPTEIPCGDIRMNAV

Sequence of NA-uptake (Q63380 1-617): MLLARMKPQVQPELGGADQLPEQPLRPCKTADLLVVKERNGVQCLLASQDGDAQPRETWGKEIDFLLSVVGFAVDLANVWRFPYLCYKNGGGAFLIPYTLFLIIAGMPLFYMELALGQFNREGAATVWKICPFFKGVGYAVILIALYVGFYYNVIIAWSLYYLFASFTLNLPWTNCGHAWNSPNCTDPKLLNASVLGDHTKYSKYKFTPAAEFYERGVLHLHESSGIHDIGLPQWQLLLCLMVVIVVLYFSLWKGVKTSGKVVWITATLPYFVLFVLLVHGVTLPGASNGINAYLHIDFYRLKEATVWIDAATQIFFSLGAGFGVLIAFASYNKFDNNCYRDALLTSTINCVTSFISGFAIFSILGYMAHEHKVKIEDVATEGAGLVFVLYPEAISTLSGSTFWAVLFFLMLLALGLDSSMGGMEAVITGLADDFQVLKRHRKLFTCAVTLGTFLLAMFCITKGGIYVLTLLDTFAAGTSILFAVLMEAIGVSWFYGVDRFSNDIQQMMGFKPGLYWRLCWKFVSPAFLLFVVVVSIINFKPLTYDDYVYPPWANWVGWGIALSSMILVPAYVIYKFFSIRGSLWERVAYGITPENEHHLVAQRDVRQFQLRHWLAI

Compound	inhibition at 10 µM (NA-uptake) [%]	inhibition at 10 µM (5HT-uptake) [%]	NA-uptake [10 μM], % inhibition (NA-uptake) [%]	5HT-uptake [10 μM], % inhibition (5HT-uptake) [%]
CC1CN(C(=O)CCC(=O)NC2CCC(Cc3ccc(Cl)cc3)(N(C)C)CC2)CC(C)O1 (centres unmarked) [Example 86, N-[4-(4-chloro-benzyl)-4-dimethylamino-cyclohexyl]-4-(2,6-dimethyl-morpholin-4-yl)-4-oxo-butyramide]	76	92		
COc1cc(CN2CCN(C(=O)CCC(=O)NC3CCC(Cc4ccc(C)cc4)(N(C)C)CC3)CC2)cc2c1OCO2 (centres unmarked) [Example 4, N-[4-dimethylamino-4-(4-methyl-benzyl)-cyclohexyl]-4-[4-(7-methoxy-benzo[1,3]dioxol-5-ylmethyl)-piperazin-1-yl]-4-oxo-butyramide]	89	92		
Cc1cccc(CC2(N(C)C)CCC(NC(=O)CCC(=O)N3CCC(C(=O)c4ccccc4)CC3)CC2)c1 (centres unmarked) [Example 67, 4-(4-benzoyl-piperidin-1-yl)-N-[4-dimethylamino-4-(3-methyl-benzyl)-cyclohexyl]-4-oxo-butyramide]	96	98		
Cc1ccc(CC2(N(C)C)CCC(NC(=O)CCC(=O)Nc3ccc(OCc4ccccc4)cc3)CC2)cc1 (centres unmarked) [Example 101, N-(4-benzyloxy-phenyl)-N′-[4-dimethylamino-4-(4-methyl-benzyl)-cyclohexyl]-succinamide]	77	94		
CCC(C)c1ccc(NC(=O)CCC(=O)NC2CCC(Cc3ccc(Cl)cc3)(N(C)C)CC2)cc1 (centres unmarked) [Example 140, N-(4-sec-butyl-phenyl)-N′-[4-(4-chloro-benzyl)-4-dimethylamino-cyclohexyl]-succinamide]	77	93		
Cc1cccc(CC2(N(C)C)CCC(NC(=O)CCC(=O)N(C)CC(=O)OCc3ccccc3)CC2)c1 (centres unmarked) [Example 22, ({3-[4-dimethylainino-4-(3-methyl-benzyl)-cyclohexylcarbamoyl]-propionyl}-methyl-amino)-acetic acid benzyl ester]			93	95
CN(C)C1(Cc2cccc(Cl)c2)CCC(NC(=O)CCC(=O)NCC2CCCO2)CC1 (centres unmarked) [Example 29, N-[4-(3-chloro-benzyl)-4-dimethylamino-cyclohexyl]-N′-(tetrahydro-furan-2-ylmethyl)-succinamide]	91	94		
Glutaric acid-(4-benzyl-4-dimethylamino- cyclohexyl)-amide 4-dimethylamino- benzylamide [Example 81]			91	92
CN(C)C1(Cc2ccc(Cl)cc2)CCC(NC(=O)CCC(=O)Nc2ccc3c(c2)CCC3)CC1 (centres unmarked) [Example 100, N-[4-(4-chloro-benzyl)-4-dimethylamino-cyclohexyl]-N′-indan-5-yl-succinamide]	77	92		
CN(C)C1(Cc2cccc(Cl)c2)CCC(NC(=O)CCC(=O)N2CCC3(CC2)C(=O)NCN3c2ccccc2)CC1 (centres unmarked) [Example 114, N-[4-(3-chloro-benzyl)-4-dimethylamino-cyclohexyl]-4-oxo-4-(4-oxo-1-phenyl-1,3,8-triaza-spiro[4.5]dec-8-yl)-butyramide]	106	99		
Cc1cnc(C(=O)N2CCN(C(=O)CCC(=O)NC3CCC(Cc4cccc(Cl)c4)(N(C)C)CC3)CC2)cn1 (centres unmarked) [Example 33, N-[4-(3-chloro-benzyl)-4-dimethylamino-cyclohexyl]-4-[4-(5-methyl-pyrazin-2-carbonyl)-piperazin-1-yl]-4-oxo-butyramide]	99	95		
COc1ccc(NC(=O)CCC(=O)NC2CCC(Cc3ccc(Cl)cc3)(N(C)C)CC2)cc1 (centres unmarked) [Example 108, N-[4-(4-chloro-benzyl)-4-dimethylamino-cyclohexyl]-N′-(4-methoxy-phenyl)-succinamide]	100	94		
COc1ccccc1N1CCN(C(=O)CCC(=O)NC2CCC(Cc3ccc(Cl)cc3)(N(C)C)CC2)CC1 (centres unmarked) [Example 47, N-[4-(4-chloro-benzyl)-4-dimethylamino-cyclohexyl]-4-[4-(2-methoxy-phenyl)-piperazin-1-yl]-4-oxo-butyramide]	73	93		
CN(C)C1(Cc2ccc(Cl)cc2)CCC(NC(=O)CCC(=O)NCc2cccc(Br)c2)CC1 (centres unmarked) [Example 165, N-(3-bromo-benzyl)-N′-[4-(4-chloro-benzyl)-4-dimethylamino-cyclohexyl]-succinamide]	94	92		
CCC(C)C(NC(=O)CCC(=O)NC1CCC(Cc2cccc(C)c2)(N(C)C)CC1)C(=O)OC(C)(C)C (centres unmarked) [Example 102, 2-{3-[4-dimethylamino-4-(3-methyl-benzyl)-cyclohexylcarbamoyl]-propionylamino}-3-methyl-valeric acid tert-butyl ester]	105	94		
CN(Cc1cccnc1)C(=O)CCC(=O)NC1CCC(Cc2ccc(Cl)cc2)(N(C)C)CC1 (centres unmarked) [Example 72, N-[4-(4-chloro-benzyl)-4-dimethylamino-cyclohexyl]-N′-methyl-N′-pyridin-3-ylmethyl-succinamide]	70	95		
CN(C)C1(Cc2ccc(Cl)cc2)CCC(NC(=O)CCC(=O)N2CCC3(CC2)OCCO3)CC1 (centres unmarked) [Example 65, N-[4-(4-chloro-benzyl)-4-dimethylamino-cyclohexyl]-4-(1,4-dioxa-8-aza-spiro[4.5]dec-8-yl)-4-oxo-butyramide]	84	92		
COc1cccc(N2CCN(C(=O)CCCC(=O)NC3CCC(Cc4ccccc4)(N(C)C)CC3)CC2)c1 (centres unmarked) [Example 91, 5-[4-(3-methoxy-phenyl)-piperazin-1-yl]-5-oxo-valeric acid (4-benzyl-4-dimethylamino-cyclohexyl)-amide]	101	92		
Cc1cnc(C(=O)N2CCN(C(=O)CCC(=O)NC3CCC(Cc4ccc(Cl)cc4)(N(C)C)CC3)CC2)cn1 (centres unmarked) [Example 14, N-[4-(4-chloro-benzyl)-4-dimethylamino-cyclohexyl]-4-[4-(5-methyl-pyrazin-2-carbonyl)-piperazin-1-yl]-4-oxo-butyramide]	78	95		
Cc1ccc(CC2(N(C)C)CCC(NC(=O)CCC(=O)NC3CCCc4ccccc43)CC2)cc1 (centres unmarked) [Example 126, N-[4-dimethylamino-4-(4-methyl-benzyl)-cyclohexyl]-N′-(1,2,3,4-tetrahydro-naphthalen-1-yl)-succinamide]	84	93		
CN(C)C1(Cc2ccc(Cl)cc2)CCC(NC(=O)CCC(=O)N2CC=CCC2)CC1 (centres unmarked) [Example 5, N-[4-(4-chloro-benzyl)-4-dimethylamino-cyclohexyl]-4-(3,6-dihydro-2H-pyridin-1-yl)-4-oxo-butyramide]	80	93		
COc1ccc(N2CCN(C(=O)CCC(=O)NC3CCC(Cc4ccc(C)cc4)(N(C)C)CC3)CC2)cc1 (centres unmarked) [Example 79, N-[4-dimethylamino-4-(4-methyl-benzyl)-cyclohexyl]-4-[4-(4-methoxy-phenyl)-piperazin-1-yl]-4-oxo-butyramide]	95	96		
